Reference: patent US10681909B2, “Herbicidal triazoles” (FMC Corporation, priority 2014, dated 2020)

Tests used:
pigweed, palmer [1] = assay: Test E preemergence; format: in vivo, Amaranthus palmeri; details: scale 0 to 100
Source text: (§1) Seeds of plant species selected from corn (Zea mays), soybean (Glycine max), lambsquarters (Chenopodium album), poinsettia, wild (wild poinsettia, Euphorbia heterophylla), pigweed, palmer (palmer pigweed, Amaranthus palmeri), waterhemp (common waterhemp, Amaranthus rudis), surinam grass (Brachiaria decumbens), crabgrass, large (large crabgrass, Digitaria sanguinalis), crabgrass, Brazilian (Brazilian crabgrass, Digitaria horizontalis), panicum, fall (fall panicum, Panicum dichotomiflorum), foxtail, giant (giant foxtail, Setaria faberii), foxtail, green (green foxtail, Setaria viridis), goosegrass (Eleusine indica), johnsongrass (Sorghum halepense), ragweed (common ragweed, Ambrosia elatior), barnyardgrass (Echinochloa crus-galli), sandbur (southern sandbur, Cenchrus echinatus), arrowleaf sida (Sida rhombifolia), ryegrass, Italian (Italian ryegrass, Lolium multiflorum), dayflower, VA (Virginia dayflower, Commelina virginica), field bindweed (Convolvulus arvensis), cocklebur (common cocklebur, Xanthium strumarium), morningglory (Ipomoea coccinea), nightshade (eastern black nightshade, Solanum ptycanthum), kochia (Kochia scoparia), nutsedge, yellow (yellow nutsedge, Cyperus esculentus), smartweed (ladysthumb smartweed, Polygonum persicaria), velvetleaf (Abutilon theophrasti), horseweed (Conyza canadensis), and beggarticks (hairy beggarticks, Bidens pilosa), were planted into a silt loam soil and treated preemergence with test chemicals formulated in a non-phytotoxic solvent mixture which included a surfactant.
(§2) At the same time, plants from these crop and weed species and also waterhemp_RES1, (ALS & Triazine resistant common waterhemp, Amaranthus rudis), and waterhemp_RES2, (ALS & HPPD resistant common waterhemp, Amaranthus rudis) were planted in pots containing Sunshine Redi-Earth® planting medium comprising spaghnum peat moss, vermiculite, starter nutrients and dolomitic limestone were treated with postemergence applications of test chemicals formulated in the same manner. Plants ranged in height from 2 to 18 cm for postemergence treatments (1- to 4-leaf stage). Treated plants and controls were maintained in a greenhouse for 14 to 21 d, after which time all species were compared to controls and visually evaluated. Plant response ratings, summarized in Table E, are based on a scale of 0 to 100 where 0 is no effect and 100 is complete control. A dash (-) response means no test result.

ragweed = assay: Test E preemergence; format: in vivo, Ambrosia elatior; details: scale 0 to 100
Source text: as §1, §2

crabgrass, Brazilian [2] = assay: Test E preemergence; format: in vivo, Digitaria horizontalis; details: Brazil, scale 0 to 100
Source text: as §1, §2

goosegrass = assay: Test E preemergence; format: in vivo, Eleusine indica; details: scale 0 to 100
Source text: as §1, §2

morningglory = assay: Test E preemergence; format: in vivo, Ipomoea coccinea; details: scale 0 to 100
Source text: as §1, §2

soybean [3] = assay: Test E preemergence; format: in vivo, Glycine max; details: scale 0 to 100
Source text: as §1, §2

dayflower, VA = assay: Test E postemergence; format: in vivo, Commelina virginica; details: scale 0 to 100
Source text: as §1, §2

waterhemp = assay: Test E preemergence; format: in vivo, Amaranthus rudis; details: scale 0 to 100
Source text: as §1, §2

barnyardgrass [4] = assay: Test E postemergence; format: in vivo, Echinochloa crus-galli; details: scale 0 to 100
Source text: as §1, §2

corn = assay: Test E postemergence; format: in vivo, Zea mays; details: scale 0 to 100
Source text: as §1, §2

surinam grass = assay: Test E preemergence; format: in vivo, Brachiaria decumbens; details: scale 0 to 100
Source text: as §1, §2

barnyardgrass [5] = assay: Test E preemergence; format: in vivo, Echinochloa crus-galli; details: scale 0 to 100
Source text: as §1, §2

panicum, fall = assay: Test E postemergence; format: in vivo, Panicum dichotomiflorum; details: scale 0 to 100
Source text: as §1, §2

nightshade = assay: Test E preemergence; format: in vivo, Solanum ptycanthum; details: scale 0 to 100
Source text: as §1, §2

crabgrass, Brazilian [6] = assay: Test E postemergence; format: in vivo, Digitaria horizontalis; details: Brazil, scale 0 to 100
Source text: as §1, §2

pigweed, palmer [7] = assay: Test E postemergence; format: in vivo, Amaranthus palmeri; details: scale 0 to 100
Source text: as §1, §2

foxtail, giant = assay: Test E preemergence; format: in vivo, Setaria faberii; details: scale 0 to 100
Source text: as §1, §2

ryegrass, Italian = assay: Test E preemergence; format: in vivo, Lolium multiflorum; details: scale 0 to 100
Source text: as §1, §2

arrowleaf sida = assay: Test E preemergence; format: in vivo, Sida rhombifolia; details: scale 0 to 100
Source text: as §1, §2

soybean [8] = assay: Test E postemergence; format: in vivo, Glycine max; details: scale 0 to 100
Source text: as §1, §2

Fc1ccc(-c2nc(OCC(F)(F)F)n(Cc3ccnc(C(F)(F)F)c3)n2)cc1 [Compound 30]
Plant response rating (pigweed, palmer [1]; 31 g ai/ha): 90 | Plant response rating (pigweed, palmer [1]; 62 g ai/ha): 100 | Plant response rating (pigweed, palmer [1]; 125 g ai/ha): 100 | Plant response rating (pigweed, palmer [1]; 250 g ai/ha): 100 | Plant response rating (ragweed; 31 g ai/ha): 65 | Plant response rating (ragweed; 62 g ai/ha): 50 | Plant response rating (ragweed; 125 g ai/ha): 70 | Plant response rating (ragweed; 250 g ai/ha): 98 | Plant response rating (crabgrass, Brazilian [2]; 31 g ai/ha): 90 | Plant response rating (crabgrass, Brazilian [2]; 62 g ai/ha): 100 | Plant response rating (crabgrass, Brazilian [2]; 125 g ai/ha): 100 | Plant response rating (crabgrass, Brazilian [2]; 250 g ai/ha): 100 | Plant response rating (goosegrass; 31 g ai/ha): 70 | Plant response rating (goosegrass; 62 g ai/ha): 100 | Plant response rating (goosegrass; 125 g ai/ha): 100 | Plant response rating (goosegrass; 250 g ai/ha): 100 | Plant response rating (morningglory; 31 g ai/ha): 25 | Plant response rating (morningglory; 62 g ai/ha): 15 | Plant response rating (morningglory; 125 g ai/ha): 15 | Plant response rating (morningglory; 250 g ai/ha): 65 | Plant response rating (soybean [3]; 31 g ai/ha): 0 | Plant response rating (soybean [3]; 62 g ai/ha): 0 | Plant response rating (soybean [3]; 125 g ai/ha): 0 | Plant response rating (soybean [3]; 250 g ai/ha): 30 | Plant response rating (dayflower, VA; 31 g ai/ha): 60 | Plant response rating (dayflower, VA; 62 g ai/ha): 70 | Plant response rating (dayflower, VA; 125 g ai/ha): 80 | Plant response rating (dayflower, VA; 250 g ai/ha): 90 | Plant response rating (waterhemp; 31 g ai/ha): 100 | Plant response rating (waterhemp; 62 g ai/ha): 100 | Plant response rating (waterhemp; 125 g ai/ha): 100 | Plant response rating (waterhemp; 250 g ai/ha): 100 | Plant response rating (barnyardgrass [4]; 31 g ai/ha): 30 | Plant response rating (barnyardgrass [4]; 62 g ai/ha): 50 | Plant response rating (barnyardgrass [4]; 125 g ai/ha): 90 | Plant response rating (barnyardgrass [4]; 250 g ai/ha): 100 | Plant response rating (corn; 31 g ai/ha): 10 | Plant response rating (corn; 62 g ai/ha): 20 | Plant response rating (corn; 125 g ai/ha): 20 | Plant response rating (corn; 250 g ai/ha): 30 | Plant response rating (surinam grass; 31 g ai/ha): 15 | Plant response rating (surinam grass; 62 g ai/ha): 20 | Plant response rating (surinam grass; 125 g ai/ha): 50 | Plant response rating (surinam grass; 250 g ai/ha): 70 | Plant response rating (barnyardgrass [5]; 31 g ai/ha): 20 | Plant response rating (barnyardgrass [5]; 62 g ai/ha): 70 | Plant response rating (barnyardgrass [5]; 125 g ai/ha): 75 | Plant response rating (barnyardgrass [5]; 250 g ai/ha): 95 | Plant response rating (panicum, fall; 31 g ai/ha): 20 | Plant response rating (panicum, fall; 62 g ai/ha): 30 | Plant response rating (panicum, fall; 125 g ai/ha): 35 | Plant response rating (panicum, fall; 250 g ai/ha): 30 | Plant response rating (nightshade; 31 g ai/ha): 20 | Plant response rating (nightshade; 62 g ai/ha): 80 | Plant response rating (nightshade; 125 g ai/ha): 90 | Plant response rating (nightshade; 250 g ai/ha): 98 | Plant response rating (crabgrass, Brazilian [6]; 31 g ai/ha): 35 | Plant response rating (crabgrass, Brazilian [6]; 62 g ai/ha): 60 | Plant response rating (crabgrass, Brazilian [6]; 125 g ai/ha): 70 | Plant response rating (crabgrass, Brazilian [6]; 250 g ai/ha): 85 | Plant response rating (pigweed, palmer [7]; 31 g ai/ha): 95 | Plant response rating (pigweed, palmer [7]; 62 g ai/ha): 100 | Plant response rating (pigweed, palmer [7]; 125 g ai/ha): 100 | Plant response rating (pigweed, palmer [7]; 250 g ai/ha): 100 | Plant response rating (foxtail, giant; 31 g ai/ha): 95 | Plant response rating (foxtail, giant; 62 g ai/ha): 98 | Plant response rating (foxtail, giant; 125 g ai/ha): 98 | Plant response rating (foxtail, giant; 250 g ai/ha): 100 | Plant response rating (ryegrass, Italian; 31 g ai/ha): 30 | Plant response rating (ryegrass, Italian; 62 g ai/ha): 40 | Plant response rating (ryegrass, Italian; 125 g ai/ha): 75 | Plant response rating (ryegrass, Italian; 250 g ai/ha): 100 | Plant response rating (arrowleaf sida; 31 g ai/ha): 40 | Plant response rating (arrowleaf sida; 62 g ai/ha): 65 | Plant response rating (arrowleaf sida; 125 g ai/ha): 85 | Plant response rating (arrowleaf sida; 250 g ai/ha): 95 | Plant response rating (soybean [8]; 31 g ai/ha): 75 | Plant response rating (soybean [8]; 62 g ai/ha): 80 | Plant response rating (soybean [8]; 125 g ai/ha): 85 | Plant response rating (soybean [8]; 250 g ai/ha): 95
